Source: patent US8815946B2, “Inhibition of proliferation and fibrotic response of activated corneal stromal cells” (University of Pittsburgh—of the Commonwealth System of …, priority 2008, dated 2014)

Columns and labels:
[1] = tested on: human corneal stromal cells; experiment: Toxicity to cultured human corneal stromal cells; format: cell-based; conditions: possibly due to low pH of the culture medium
Protocol: Higher than 20 mM concentrations were toxic to the cells, possibly due to the low pH of the culture medium resulting from high EP concentrations.

GR-1 neutrophils = experiment: Mouse corneal wound model, FACS with neutrophil marker GR-1; format: in vivo, Mus musculus strain C57; conditions: day 2 post-wounding
Source text: A mouse model of corneal wound healing and inflammation induced by lipopolysacharide (LPS) was used to test the effect of EP. Khatari et al., Invest. Opthalmol. Vis. Sci. (2002) 43:2278-2284. Briefly, mice (Mus musculus strain C57, age approx. 2 months) were obtained from Charles River Laboratories in accordance with institutional protocols and divided into the following treatment groups (with 3 samples in each group):
Prior to wounding, all mice were anesthetized with an intraperitoneal injection of 50 mg/kg ketamine with 5 mg/kg xylazine. Topical anesthesia was further achieved with an additional 1 drop of 0.5% proparacaine per eye. Once the animal was sufficiently anesthetized, a corneal wound was constructed in each eye using a sterile 26-gauge needle that penetrated the epithelium and the superficial layers of the stroma. This linear scratch extended from the medial to lateral canthus (FIG. 12). 10 μg of the bacterial super-antigen LPS (Pseudomonas aeruginosa lipopolysaccharide, Sigma) was applied to the wound using a 10 μl pipette and allowed to penetrate the cornea for 5 minutes. Addition of bacterial endotoxin ensured a robust inflammatory response.
The wound was then washed with phosphate buffered saline (PBS/non-pyrogenic dH2O). […] The delivery and concentration of EP was determined according to Devamanoharan et al. (1999); 200(1-2):103-09. […]

Ki67 = Ki67 staining of activated rabbit corneal keratocytes; format: cell-based; conditions: bFGF (40 ng/ml)+HS (5 μg/ml), 15 mM EP, two days
Protocol: FIGS. 18A-18B. Rabbit corneal keratocytes were activated with bFGF (40 ng/ml)+HS (5 μg/ml) without EP (FIG. 18A) or with 15 mM EP (FIG. 18B) and after two days the cells were triple stained with anti-Ki67 antibodies (yellow), phalloidin (red, actin filaments) and DAPI (blue, nucleus).
As described in Example 1, corneal stromal cells were isolated from rabbit corneas and cultured using the same procedures. The keratocytes in serum free media were treated with b-FGF (40 ng/ml)+HS (5 μg/ml) with or without 15 mM EP or 1, 2.5 or 5 mM following EP derivatives: 2-oxopropionic acid 3-methoxyphenyl ester, 2-oxopropionic acid 2-ethoxyethyl ester, 2-oxopropionic acid 2-chloroethyl ester, 2-oxopropionic acid isopropyl ester, 2-oxopropionic acid butyl ester, 2-oxopropionic acid p-tolyl ester, 2-oxopropionic acid tert-butyl ester. Two days following the treatments, the cells were fixed and stained for Ki67 (a nuclear antigen expressed during the G1/S or S phase of the cell cycle) as described supra. The relative levels of the expression of specific proteins were analyzed by Western blot analyses of the cell lysates as described supra.

[2] = cited from earlier work

With `CCOC(=O)C(C)=O` [ethyl pyruvate] the “concentrations toxic to the cells” value [1] was “Higher than 20 mM”, the “neutrophils (GR-1) by FACS” value (GR-1 neutrophils) was 61.00±42.53 and the “Ki67 positive cells (staining, qualitative)” value (Ki67) was “only a few Ki67 positive cells”. For the same compound, the “time to diffuse into the aqueous humor” value ([2]; applied on the surface of the eye) was at most 15 min, the “entry into the anterior chamber” value ([2]; diffuses through conjunctival tissue or into corneal stroma) was “within minutes” and the elimination half-life ([2]; in vivo) was “approximately 90 minutes”.
